From patent publication US12559506B2, “Indazole based compounds and associated methods of use” (Arvinas Operations, Inc., priority 2021, dated 2026) come the findings set out here.

Like-named read-outs stand apart in the source and are kept apart here. Where only a bound is given, the exact number is not on record here.

This assay has as its target T1, LRRK2 (endogenous, HiBit tagged) (Homo sapiens, UniProt Q5S007).
T1 construct: endogenous in cells; host or cells: HEK293 cells with HiBit knock-in at the endogenous LRRK2 locus, stably expressing firefly luciferase
Nature of the assay: Endogenous LRRK2 degradation assay, endogenous gene C-terminally HiBit-tagged in HEK293 cells (Nano-Glo Dual Luciferase). It is filed as cell-based. The text has this: Exemplary Assay for Testing LRRK2 Degradation Driven by Exemplary Hetero-Bifunctional Compounds Designed to Target LRRK2
The assay measures the degradation of LRRK2 in cells where the C-terminus (3′) of the endogenous gene has been tagged with a HiBit sequence in HEK293 cells. The cells also express firefly luciferase, expressed from a Cytomegalovirus promoter and introduced into the HiBit tagged cells and stably expressed. The Nano-Glo® Dual Luciferase Reporter Assay System (Promega™, Madison, WI) was utilized.
Day 1—Preparation of Compound and Assay Plates. Two sets of plates were prepared: a triplicate set for the HiBit assay in white 384-well plates and a triplicate set of plate in black 384-well plates for the Alamar Blue cell viability assay. Briefly, the growth media (DMEM+Glutamax-10% fetal bovine serum-1% Penicillin-Streptomicin) from two T128 flasks was aspirated from the flasks. Cells were washed with Dulbecco's Phosphate Buffered Saline (dPBS) and aspirated. Trypsin (3 mL per flask) was added and the flasks were incubated for 2-3 minutes.
Ten mL of OptiMEM-10% fetal bovine-1% penicillin-streptomycin (hereinafter, “OptiMEM media”) was added to the flask and the cells and transferred to a 50 mL conical tube. A cell count (25 ul of cell into Effendorf vial+25 ul of Trypan Blue Stain) was performed and the cell density adjusted to 15,000 cell/45 μl/well (3.33×10^5/mL) in OptiMEM media.
Fourty-five microliters of the cell suspension (15,000 cells) was aliquoted to each well of the white 384-well plate. The plates incubated at room temperature for 10 minutes before being placed in the 37° C.+5% CO2 incubator overnight
Day 2—Compound Treatment. Exemplary compounds were prepared at a 1 mM starting concentration and 1:3 serial dilution for 11 points CRC prepared and stored in the freezer. The Master Compound Plate was thawed overnight at room temperature. DMSO (20 μL) was added into column 24 of the Master Compound Plate for negative control and 20 μL of 300 μM of Compound 4 in column 23 as positive control.
Intermediate Compound Plate with 4% DMSO in OptiMEM Media. DMSO was added to warm OptiMEM media to achieve a 4% DMSO solution (approximately 50 mL/plate). One-hundred microliters of the OptiMEM-4% DMSO was aliquoted to each well of 384-Well Deep Well Microplates.
The Master Compound Plate and the Intermediate Compound Plate were spun down.
One microliter of compound from the Master Compound Plate was transferred into the Intermediate plate (a 1:100 dilution). The diluted mixture was mixed and 5 μL transferred into the assay plate (a 1:10 dilution) for the final starting concentration of 1 μM. The Treated Assay plates were incubated for 24 hours at 37° C.+5% CO2. The Master Compound Plate was sealed and store at room temperature for a second run that was performed within a week.
Day 3—HiBit Assay. Five microliters of Alamar Blue was added to each well of the black 384-well plates. The plates were incubated for 2 hours in the incubator (37° C.+5% CO2) and at room temperature for one hour. Fluorescence of each plate was read on a plated reader for the Alamar Blue viability assay.
One set of white assay plates was warmed to room temperature (45 minute).
The One Glo luciferase mixture was prepared. The media from white 384-well assay plates was aspirated. Twenty-five μL of the One Glo luciferase mixture was added to each well of the assay plates. The plates were incubated on the bench (room temperature) for 45 minutes, including 10 minutes of shaking at 700 rpm. The luminescence of each plate was read on a plate reader.
1:100 DLR substrate and 1:100 LgBiT Protein dilution were added to the Promega Stop and Glo buffer and mixed just before addition to assay plates. Twenty-five microliters of Stop and Glo mixture was added to each well. Assay plates incubated for at least 45 minutes, including 10 minutes of shaking at 700 rpm. The luminescence of each plate was read on a plate reader.
Analysis of LRRK2 HiBit Screening assays. […]
In general terms: The HiBiT peptide binds its large partner to form an active luciferase.

[1] abbreviates: endogenous HiBit-tagged LRRK2 in HEK293 cells, 24 hours treatment, read-out: **Endogenous WT Dmax (%).
The mark [2] stands for this setting: endogenous HiBit-tagged LRRK2 in HEK293 cells, 24 hours treatment, read-out: *Endogenous WT DC50.
Setting [3] is: endogenous HiBit-tagged LRRK2 in HEK293 cells, 24 hours treatment, read-out: Endogenous WT DC50.
Where [4] appears, read: endogenous HiBit-tagged LRRK2 in HEK293 cells, 24 hours treatment, read-out: Endogenous WT Dmax.

T1 sequence (Q5S007 whole entry): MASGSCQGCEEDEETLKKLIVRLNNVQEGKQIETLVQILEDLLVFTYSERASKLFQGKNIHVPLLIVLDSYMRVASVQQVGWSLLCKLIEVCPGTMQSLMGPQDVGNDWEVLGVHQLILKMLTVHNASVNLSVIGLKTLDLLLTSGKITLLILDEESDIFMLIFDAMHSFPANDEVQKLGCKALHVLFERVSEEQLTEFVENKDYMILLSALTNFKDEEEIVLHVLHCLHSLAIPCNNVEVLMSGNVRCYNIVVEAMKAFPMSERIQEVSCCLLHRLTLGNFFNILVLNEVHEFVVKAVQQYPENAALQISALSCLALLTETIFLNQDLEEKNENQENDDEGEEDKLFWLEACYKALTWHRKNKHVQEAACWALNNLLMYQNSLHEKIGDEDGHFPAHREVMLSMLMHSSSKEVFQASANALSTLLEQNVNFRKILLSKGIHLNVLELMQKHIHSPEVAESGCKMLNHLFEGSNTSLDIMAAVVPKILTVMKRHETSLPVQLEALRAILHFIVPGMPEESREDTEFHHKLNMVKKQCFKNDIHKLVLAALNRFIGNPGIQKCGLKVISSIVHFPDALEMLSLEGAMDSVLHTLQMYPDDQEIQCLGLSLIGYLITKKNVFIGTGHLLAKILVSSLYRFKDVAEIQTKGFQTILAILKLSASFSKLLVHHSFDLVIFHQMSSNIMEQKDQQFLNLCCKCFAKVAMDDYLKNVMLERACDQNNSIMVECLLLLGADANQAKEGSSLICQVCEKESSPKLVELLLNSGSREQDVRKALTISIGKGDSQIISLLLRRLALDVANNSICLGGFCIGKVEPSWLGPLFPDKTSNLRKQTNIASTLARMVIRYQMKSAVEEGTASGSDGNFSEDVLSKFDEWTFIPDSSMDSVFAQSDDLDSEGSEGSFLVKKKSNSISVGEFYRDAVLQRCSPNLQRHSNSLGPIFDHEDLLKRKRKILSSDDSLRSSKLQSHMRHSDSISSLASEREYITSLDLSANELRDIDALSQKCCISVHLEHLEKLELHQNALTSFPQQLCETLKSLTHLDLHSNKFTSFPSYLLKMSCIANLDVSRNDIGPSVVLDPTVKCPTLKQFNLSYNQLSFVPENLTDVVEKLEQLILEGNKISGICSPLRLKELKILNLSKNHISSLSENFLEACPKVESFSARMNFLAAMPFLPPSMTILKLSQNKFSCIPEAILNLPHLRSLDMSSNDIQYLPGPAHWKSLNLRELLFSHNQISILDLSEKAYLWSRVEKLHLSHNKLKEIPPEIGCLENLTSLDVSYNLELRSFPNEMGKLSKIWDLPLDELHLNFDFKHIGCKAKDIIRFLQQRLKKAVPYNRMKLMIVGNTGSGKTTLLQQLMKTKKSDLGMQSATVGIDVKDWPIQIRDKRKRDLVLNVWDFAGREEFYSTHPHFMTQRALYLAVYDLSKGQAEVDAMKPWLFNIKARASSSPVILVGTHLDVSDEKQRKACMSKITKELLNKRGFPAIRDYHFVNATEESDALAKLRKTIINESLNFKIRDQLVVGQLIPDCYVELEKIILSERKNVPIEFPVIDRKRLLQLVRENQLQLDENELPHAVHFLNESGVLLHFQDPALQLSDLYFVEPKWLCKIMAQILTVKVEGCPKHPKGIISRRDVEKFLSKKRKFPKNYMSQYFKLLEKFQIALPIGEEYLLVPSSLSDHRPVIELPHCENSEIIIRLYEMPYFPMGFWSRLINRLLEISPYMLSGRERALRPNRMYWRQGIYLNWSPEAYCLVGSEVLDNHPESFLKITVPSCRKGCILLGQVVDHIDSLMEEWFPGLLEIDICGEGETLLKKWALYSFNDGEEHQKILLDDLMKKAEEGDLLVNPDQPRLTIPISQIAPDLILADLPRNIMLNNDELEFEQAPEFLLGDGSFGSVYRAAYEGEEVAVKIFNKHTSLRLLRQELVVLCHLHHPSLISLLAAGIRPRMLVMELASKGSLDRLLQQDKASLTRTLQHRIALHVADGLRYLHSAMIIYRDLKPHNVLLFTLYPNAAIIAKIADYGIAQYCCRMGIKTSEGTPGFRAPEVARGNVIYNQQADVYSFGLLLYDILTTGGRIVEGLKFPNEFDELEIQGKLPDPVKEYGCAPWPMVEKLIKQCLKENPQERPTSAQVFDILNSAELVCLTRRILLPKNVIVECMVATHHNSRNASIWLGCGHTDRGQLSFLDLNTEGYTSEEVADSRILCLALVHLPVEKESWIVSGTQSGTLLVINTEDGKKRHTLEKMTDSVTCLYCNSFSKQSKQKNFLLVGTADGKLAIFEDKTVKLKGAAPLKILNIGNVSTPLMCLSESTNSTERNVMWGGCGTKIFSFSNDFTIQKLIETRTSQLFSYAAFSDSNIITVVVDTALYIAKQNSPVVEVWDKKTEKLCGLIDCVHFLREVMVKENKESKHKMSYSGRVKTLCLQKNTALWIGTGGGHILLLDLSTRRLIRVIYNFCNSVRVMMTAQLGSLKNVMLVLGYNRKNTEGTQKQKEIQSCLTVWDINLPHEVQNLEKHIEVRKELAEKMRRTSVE

For `COc1c(C2CCN([C@H]3C[C@H](OC4CCN(c5cc(-c6[nH]nc7ccc(OC8(C)CC8)cc67)ncn5)CC4)C3)CC2)ccc2c1CN(C1CCC(=O)NC1=O)C2=O` (some centres unmarked) [Compound 329, 3-(4-methoxy-1-oxo-5-{1-[(1r,3r)-3-[(1-{6-[5-(1-methylcyclopropoxy)-2H-indazol-3-yl]pyrimidin-4-yl}piperidin-4-yl)oxy]cyclobutyl]piperidin-4-yl}-2,3-dihydro-1H-isoindol-2-yl)piperidine-2,6-dione], the Dmax – broadly, the greatest extent of degradation seen – under setting [1] lay in the range of 50 to 70%. The DC50 (as a rule, the concentration giving 50% degradation) under setting [2] was less than 10 nM.

Consider `CC1(Oc2cc3c(-c4cc(N5CCC(CN6CCN(CC7(F)CCN(c8ccc9c(c8F)CN(C8CCC(=O)NC8=O)C9=O)CC7)CC6)CC5)ncn4)[nH]nc3cc2F)CC1` (centres unmarked) [Compound 229, 3-{4-fluoro-5-[4-fluoro-4-({4-[(1-{6-[6-fluoro-5-(1-methylcyclopropoxy)-2H-indazol-3-yl]pyrimidin-4-yl}piperidin-4-yl)methyl]piperazin-1-yl}methyl)piperidin-1-yl]-1-oxo-2,3-dihydro-1H-isoindol-2-yl}piperidine-2,6-dione], for which the DC50 under setting [3] is less than 10 nM. Also, the Dmax under setting [4] lay in the range of 50 to 70%.

On to `COc1c(N2CCC(CN3CCN(CC4CCN(c5cc(-c6n[nH]c7cnc(OC8(C)CC8)cc67)ncn5)CC4)C[C@H]3C)CC2)ccc2c1CN(C1CCC(=O)NC1=O)C2=O` (stereo partly drawn) [Compound 324, 3-[4-methoxy-5-(4-{[(2R)-2-methyl-4-[(1-{6-[5-(1-methylcyclopropoxy)-1H-pyrazolo[3,4-c]pyridin-3-yl]pyrimidin-4-yl}piperidin-4-yl)methyl]piperazin-1-yl]methyl}piperidin-1-yl)-1-oxo-2,3-dihydro-1H-isoindol-2-yl]piperidine-2,6-dione], for which the DC50 under setting [2] is less than 10 nM.

`Cc1nc(-c2n[nH]c3ccc(OC4(C)CC4)cc23)cc(N2CCN(C[C@H]3CC[C@H](OC4CCN(c5ccc6c(c5F)CN(C5CCC(=O)NC5=O)C6=O)CC4)CC3)CC2)n1` (some centres unmarked) [Compound 365, 3-[4-fluoro-1-oxo-5-(4-{[(1r,4r)-4-[(4-{2-methyl-6-[5-(1-methylcyclopropoxy)-1H-indazol-3-yl]pyrimidin-4-yl}piperazin-1-yl)methyl]cyclohexyl]oxy}piperidin-1-yl)-2,3-dihydro-1H-isoindol-2-yl]piperidine-2,6-dione]: the DC50 under setting [3] is less than 10 nM. The Dmax under setting [4] is 50 to 70%.

For `CC1(Oc2ccc3[nH]nc(-c4ccnc(N5CCN(C[C@H]6CC[C@H](OC7CCN(c8ccc9c(c8F)CN(C8CCC(=O)NC8=O)C9=O)CC7)CC6)CC5)c4)c3c2)CC1` (some centres unmarked) [Compound 358, 3-[4-fluoro-1-oxo-5-(4-{[(1r,4r)-4-[(4-{4-[5-(1-methylcyclopropoxy)-1H-indazol-3-yl]pyridin-2-yl}piperazin-1-yl)methyl]cyclohexyl]oxy}piperidin-1-yl)-2,3-dihydro-1H-isoindol-2-yl]piperidine-2,6-dione], the DC50 under setting [3] is less than 10 nM. Besides, the Dmax under setting [4] is 50 to 70%.

Turning to `C[C@H]1CN(c2cc(-c3[nH]nc4cc(F)c(OC5(C)CC5)cc34)ncn2)CCN1CC1(F)CCN(CC2CCN(c3cc4c(cc3F)C(=O)N(C3CCC(=O)NC3=O)C4)CC2)CC1` (stereo partly drawn) [Compound 197, 3-(6-fluoro-5-{4-[(4-fluoro-4-{[(2S)-4-{6-[6-fluoro-5-(1-methylcyclopropoxy)-2H-indazol-3-yl]pyrimidin-4-yl}-2-methylpiperazin-1-yl]methyl}piperidin-1-yl)methyl]piperidin-1-yl}-1-oxo-2,3-dihydro-1H-isoindol-2-yl)piperidine-2,6-dione], the Dmax (endogenous HiBit-tagged LRRK2, HEK293 cells, 24 hours, read-out: **Endogenous WT Dmax (%)) is no less than 70%. For the same compound, the DC50 (endogenous HiBit-tagged LRRK2, HEK293 cells, 24 hours, read-out: *Endogenous WT DC50) is less than 10 nM.

For `C[C@H]1CN(CC2CCN(c3ccc4c(c3F)CN(C3CCC(=O)NC3=O)C4=O)CC2)CCN1CC1CCN(c2cc(-c3n[nH]c4ccc(OC5(C)CC5)cc34)ncn2)CC1` (stereo partly drawn) [Compound 221, 3-[4-fluoro-5-(4-{[(3S)-3-methyl-4-[(1-{6-[5-(1-methylcyclopropoxy)-1H-indazol-3-yl]pyrimidin-4-yl}piperidin-4-yl)methyl]piperazin-1-yl]methyl}piperidin-1-yl)-1-oxo-2,3-dihydro-1H-isoindol-2-yl]piperidine-2,6-dione], under setting [3], the DC50 is less than 10 nM. Besides, the Dmax under setting [4] was in the range of 50 to 70%.

For the compound `CC1(Oc2cc3c(-c4cc(N5CCC(CN6CCN(CC7CCN(c8ccc9c(c8F)CN(C8CCC(=O)NC8=O)C9=O)CC7)CC6(C)C)CC5)ncn4)n[nH]c3cn2)CC1` (centres unmarked) [Compound 247, 3-{5-[4-({3,3-dimethyl-4-[(1-{6-[5-(1-methylcyclopropoxy)-1H-pyrazolo[3,4-c]pyridin-3-yl]pyrimidin-4-yl}piperidin-4-yl)methyl]piperazin-1-yl}methyl)piperidin-1-yl]-4-fluoro-1-oxo-2,3-dihydro-1H-isoindol-2-yl}piperidine-2,6-dione], under setting [3], the DC50 is less than 10 nM. Moreover, the Dmax under setting [4] lay within 50 to 70%.

For the compound `COc1c(N2CCC(CN3[C@H](C)CN(CC4CCN(c5cc(-c6n[nH]c7ccc(OC8(C)CC8)cc67)ncn5)CC4)C[C@@H]3C)CC2)ccc2c1CN(C1CCC(=O)NC1=O)C2=O` (stereo partly drawn) [Compound 288, 3-[5-(4-{[(2R,6S)-2,6-dimethyl-4-[(1-{6-[5-(1-methylcyclopropoxy)-1H-indazol-3-yl]pyrimidin-4-yl}piperidin-4-yl)methyl]piperazin-1-yl]methyl}piperidin-1-yl)-4-methoxy-1-oxo-2,3-dihydro-1H-isoindol-2-yl]piperidine-2,6-dione], the greatest degradation seen (Dmax) under setting [1] was no less than 70%. Further, the DC50 under setting [2] was less than 10 nM.

For the compound `COc1c(N2CCN(C[C@H]3CC[C@H](OC4CCN(c5cc(-c6n[nH]c7cc(F)c(OC8(C)CC8)cc67)ncn5)CC4)CC3)CC2)ccc2c1CN(C1CCC(=O)NC1=O)C2=O` (some centres unmarked) [Compound 281, 3-[4-methoxy-1-oxo-5-(4-{[(1r,4r)-4-[(1-{6-[6-fluoro-5-(1-methylcyclopropoxy)-1H-indazol-3-yl]pyrimidin-4-yl}piperidin-4-yl)oxy]cyclohexyl]methyl}piperazin-1-yl)-2,3-dihydro-1H-isoindol-2-yl]piperidine-2,6-dione], under setting [1], the Dmax fell in the range of 50 to 70%. The DC50 under setting [2] is less than 10 nM.

For the compound `COc1c(N2CC[C@@H](CN3CCN(CC4CCN(c5cc(-c6n[nH]c7ccc(OC8(C)CC8)cc67)ncn5)CC4)CC3)C2)ccc2c1CN(C1CCC(=O)NC1=O)C2=O` (stereo partly drawn) [Compound 328, 3-{4-methoxy-5-[(3S)-3-({4-[(1-{6-[5-(1-methylcyclopropoxy)-1H-indazol-3-yl]pyrimidin-4-yl}piperidin-4-yl)methyl]piperazin-1-yl}methyl)pyrrolidin-1-yl]-1-oxo-2,3-dihydro-1H-isoindol-2-yl}piperidine-2,6-dione], the Dmax under setting [1] was 50 to 70%. Also, the DC50 under setting [2] was less than 10 nM.

`COc1c(N2CCN(CC3(F)CCN(CC4CCN(c5cc(-c6[nH]nc7ccc(OC8(C)CC8)cc67)ncn5)CC4)CC3)CC2)ccc2c1CN(C1CCC(=O)NC1=O)C2=O` (centres unmarked) [Compound 246, 3-{5-[4-({4-fluoro-1-[(1-{6-[5-(1-methylcyclopropoxy)-2H-indazol-3-yl]pyrimidin-4-yl}piperidin-4-yl)methyl]piperidin-4-yl}methyl)piperazin-1-yl]-4-methoxy-1-oxo-2,3-dihydro-1H-isoindol-2-yl}piperidine-2,6-dione]: the DC50 under setting [3] was less than 10 nM. For the same compound, the Dmax under setting [4] is 50 to 70%.
